Measurements published in patent US6034085A, “Salt form of nefazodone for use in extended release formulations” (Bristol-Myers Squibb Co., priority 1998, dated 2000).
“Also recorded” adds a separate entry of the source. Structures can show the parent of a compound that is named as a salt. Where two headings read alike, the source gives them in different places.

Experiments:
[1] = Intrinsic dissolution of various nefazodone salts in water at 37° C.; type: physicochemical; settings: for Intrinsic Dissolution Rate: n = 2; for Final pH: pH of the aqueous medium after dissolution had occurred
Procedure: Table 1 sets out intrinsic dissolution rates for various salts of nefazodone in water at 37° C. The final pH value is the pH of the aqueous medium after dissolution had occurred. […] Note, however, that the tosylate salt's dissolution rate is also slow even though the media is acidic in nature.
The intrinsic dissolution experiments were performed with 75 mL water as the dissolution medium. The details of these dissolution experiments are summarized below:
Container: Double-walled beaker, 100 mL capacity, round bottom.
Volume of sample withdrawn per interval: 1 mL.
Temperature of the solution in the beaker was maintained by means of a circulating waterbath. The medium was stirred with a USP II paddle using 100 rpm stirring rate (paddle depth=1 inch below the surface of the medium). Samples were withdrawn through a 0.45 μm syringe filter and were analyzed without any further dilution or treatment by HPLC (Method 1).

[2] = extended release formulations, cited from earlier work
[3] = Drug release from tablets in simulated gastric fluid pH 1.2 (FIG. 2); type: physicochemical; settings: pH 1.2, 37° C.
Procedure: (§1) The curves are plotted as percent nefazodone released over time in hours.
(§2) Remaining dissolution experiments were made with the nefazodone salts formulated into tablets as described more fully infra. Essentially, the tablets were comprised of a nefazodone salt, hydroxypropylcellulose, lactose and magnesium stearate.
(§3) Release Profiles from the Tablet Formulation
(§4) The preparation and characterization of tablets of salts of nefazodone was performed as described below:
(§5) The nefazodone salt, hydroxypropyl cellulose EF and lactose were mixed for 10-15 minutes. Magnesium stearate was added to this mixture, mixing it for five more minutes. Tablets were compressed using a Manesty machine (Model-Manesty B3B). The tablet hardness was approximately 7 SCU.
(§6) Dissolution studies were performed with a USP II apparatus in simulated gastric fluid (USP, pH 1.2), simulated intestinal fluid (USP, pH 7.5) and 0.5 M THAM (pH 7.7). The details of conditions for the dissolution experiments are as follows:
(§7) […]: 900 mL.
(§8) Sample volume withdrawn at each interval: 0.7 mL.
(§9) Samples were filtered during withdrawal and chromatographed without further dilution or treatment. Samples were analyzed by Waters HPLC system. The HPLC conditions are listed in Method 2 below.

[4] = cited from earlier work
[5] = Drug release from tablets in 0.5M THAM buffer (FIG. 4); type: physicochemical; settings: 37° C.
Procedure: as §1, §2, §3, §4, §5
The details of conditions for the dissolution experiments are as follows:
as §7, §8, §9

[6] = Dissolution of powdered nefazodone salts in 0.125M THAM buffer (FIG. 1); type: physicochemical; settings: powder, pH 7.5, 37° C.
Procedure: The curves are plotted as cumulative amounts of nefazodone versus time in minutes.
To assess solubility in non-acidic media, dissolution rates were determined for selected nefazodone salts in THAM buffer (0.125M, pH 7.5) made by dissolving tri(hydroxymethyl)aminomethane in water and adjusting the pH with conc. hydrochloride acid.
Intrinisic Dissolution Experiments in THAM
THAM buffer was prepared by dissolving tri(hydroxymethyl)aminomethane in water and adjusting the pH with concentrated hydrochloric acid. Dissolution of salts of nefazodone in powder form was studied in this medium.
The experiments were conducted in 0.125 M THAM (pH 7.7) at 37° C. using the USP II dissolution apparatus. Nefazodone […] in powder form (about 75-80 mg) were added to 900 mL dissolution medium stirred at 50 rpm and samples were withdrawn at time points up to 2 hours. The USP official method recommends paddles to be 1 inch from the bottom. In this experiment, paddles were 3/4 inch from the bottom. The paddle depth was altered to facilitate suspension of the powder during experiments. Samples were analyzed using HPLC assay.

[7] = Stability under pharmaceutical processing and storage; type: physicochemical; settings: pharmaceutical processing/handling and storage; listed as mesylate salt
[8] = Drug release from tablets in simulated intestinal fluid pH 7.5 (FIG. 3); type: physicochemical; settings: pH 7.5, 37° C.
Procedure: as §1, §2, §3, §4, §5, §6, §7, §8, §9

[9] = Aqueous solubility of nefazodone as a function of pH; type: physicochemical; settings: gastrointestinal tract / pH range
[10] = cited from earlier work; remark: listed apart in the source

| Compound | solubility / dissolution rate in water [1] | Intrinsic Dissolution Rate [1] [mg/min/cm 2] | Final pH [1] | further results |
| --- | --- | --- | --- | --- |
| CCc1nn(CCCN2CCN(c3cccc(Cl)c3)CC2)c(=O)n1CCOc1ccccc1 [Acetate] | Low solubilities | 0.03 | 5.4 | – |
| CCc1nn(CCCN2CCN(c3cccc(Cl)c3)CC2)c(=O)n1CCOc1ccccc1 [D-Malate] | – | 1.15 | 4.2 | – |
| CCc1nn(CCCN2CCN(c3cccc(Cl)c3)CC2)c(=O)n1CCOc1ccccc1 [D-Tartrate] | – | 1.13 | 3.7 | – |
| CCc1nn(CCCN2CCN(c3cccc(Cl)c3)CC2)c(=O)n1CCOc1ccccc1 [DL-Malate] | – | 0.98 | 4.3 | – |
| CCc1nn(CCCN2CCN(c3cccc(Cl)c3)CC2)c(=O)n1CCOc1ccccc1 [DL-Tartrate] | – | 1.2 | 3.7 | – |
| CCc1nn(CCCN2CCN(c3cccc(Cl)c3)CC2)c(=O)n1CCOc1ccccc1 [Hydrochloride, reference compound] | – | 0.93 | 4.4 | bioavailability [2]: low observed bioavailability; drug release from tablets ([3]; listed as hydrochloride salt): good solubility; solubility in the intestinal tract ([4]; intestinal tract, pH ranges from about 5-7): low solubility |
| CCc1nn(CCCN2CCN(c3cccc(Cl)c3)CC2)c(=O)n1CCOc1ccccc1 [L-Malate] | – | 1.36 | 4.2 | – |
| CCc1nn(CCCN2CCN(c3cccc(Cl)c3)CC2)c(=O)n1CCOc1ccccc1 [L-Tartrate] | – | 0.97 | 3.8 | – |
| CCc1nn(CCCN2CCN(c3cccc(Cl)c3)CC2)c(=O)n1CCOc1ccccc1 [Maleate] | – | 0.30 | 4.8 | – |
| CCc1nn(CCCN2CCN(c3cccc(Cl)c3)CC2)c(=O)n1CCOc1ccccc1 [Mesylate] | – | 2.7 | 4.0 | drug release from tablets [3]: good but not excessive dissolution; drug release from tablets ([3]; listed as mesylate salt): more modest release; drug release from tablets [5]: outperforms the others; concentration of drug dissolved compared to the hydrochloride salt [6]: in the higher grouping, the mesylate is not the best of those shown; stability [7]: stable solid; also recorded: stable under conditions of pharmaceutical processing and storage; drug release from tablets [8]: best of class dissolution; drug release from tablets ([8]; listed as mesylate salt): performs better than the other salts; solubility throughout the gastrointestinal tract [9]: exhibit solubility throughout the gastrointestinal tract |
| CCc1nn(CCCN2CCN(c3cccc(Cl)c3)CC2)c(=O)n1CCOc1ccccc1 [Nefazodone base] | Low solubilities | 0.002 | 7.2 | nefazodone release in the human intestinal tract ([2]; pH approaches neutrality): inhibited; pka ([10]; first of two pka values): about 6.4; pka ([10]; second of two pka values): ~9.5; aqueous solubility ([4]; pH values greater than 6): low aqueous solubility |
| CCc1nn(CCCN2CCN(c3cccc(Cl)c3)CC2)c(=O)n1CCOc1ccccc1 [Succinate] | Low solubilities | 0.16 | 5.0 | – |
| CCc1nn(CCCN2CCN(c3cccc(Cl)c3)CC2)c(=O)n1CCOc1ccccc1 [Tosylate] | slow | 0.1 | 4.4 | – |
